According to patent publication US7872026B2, “Ligand activators of the RAR receptors and pharmaceutical/cosmetic applications thereof” (Galderma Research & Development, priority 2003, dated 2011):

How the values were obtained:
RAR beta = target: T1, RAR beta (Homo sapiens, UniProt P10826); experiment: Transactivation test (Kd apparent), RAR beta; assay type: cell-based; settings: HeLa cells stably transfected with ERE-βGlob-Luc-SV-Neo reporter and RAR β ER-DBD-puro; luciferase; Schild regression vs reference antagonist; read-out: RAR beta Kd app
T1 sequence (P10826 183-417 limits assumed): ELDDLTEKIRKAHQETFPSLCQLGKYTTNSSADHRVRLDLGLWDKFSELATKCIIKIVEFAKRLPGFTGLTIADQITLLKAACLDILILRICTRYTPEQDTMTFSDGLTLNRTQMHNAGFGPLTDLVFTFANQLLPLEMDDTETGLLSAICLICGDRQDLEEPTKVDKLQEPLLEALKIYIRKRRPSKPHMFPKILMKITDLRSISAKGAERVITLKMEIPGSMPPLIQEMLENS
Procedure: (§1) The compounds according to the invention have activating properties on RAR-type receptors. This RAR-receptor-activating activity is measured in a test of transactivation by means of the dissociation constant Kdapp (apparent).
(§2) The activation of receptors with an agonist (activator) in HeLa cells leads to the expression of a reporter gene, luciferase, which, in the presence of a substrate, generates light. The activation of the receptors may thus be measured by quantifying the luminescence produced after incubating the cells in the presence of a reference agonist. The activating products displace the agonist from its site, thus preventing activation of the receptor. The activity is measured by quantifying the decrease in light produced. This measurement makes it possible to determine the activating activity of the compounds according to the invention.
(§3) In this study, a constant is determined which represents the affinity of the molecule for the receptor. Since this value can fluctuate depending on the basal activity and the expression of the receptor, it is referred to as the Kd apparent (KdApp).
(§4) To determine this constant, the cells are brought into contact with a concentration of the test product and a concentration of the reference antagonist, 4-(5,5-dimethyl-8-p-tolyl-5,6-dihydro-2-naphthalen-2-ylethynyl)benzoic acid. Measurements are also taken for the total agonist (4-[2-(5,5,8,8-tetramethyl-5,6,7,8-tetrahydro-2-naphthyl)propenyl]benzoic acid) and inverse agonist, 4-{(E)-3-[4-(4-tert-butylphenyl)-5,5,8,8-tetramethyl-5,6,7,8-tetrahydro-2-naphthyl]-3-oxopropenyl}benzoic acid, controls.
(§5) These crossed curves make it possible to determine the AC50 values (concentration at which 50% activation is observed) for the reference ligand at various concentrations of test product. These AC50 values are used to calculate the Schild regression by plotting a straight line corresponding to the Schild equation (“Quantitation in Receptor Pharmacology” Terry P. Kenakin, Receptors and Channels, 2001, 7, 371-385).
(§6) In the case of an agonist, an AC50 value (concentration that gives 50% of the activity) is calculated by plotting the curve of the product at the concentration of the reference ligand that gives 80% activation.
(§7) The HeLa cell lines used are stable transfectants containing the plasmids ERE-βGlob-Luc-SV-Neo (reporter gene) and RAR (α, β, γ) ER-DBD-puro. These cells are inoculated into 96-well plates at a rate of 10,000 cells per well in 100 μl of DMEM medium without phenol red, and supplemented with 10% defatted calf serum. The plates are then incubated at 37° C. and 7% CO2 for 4 hours.
(§8) The various dilutions of the test products, of the reference ligand (4-(5,5-dimethyl-8-p-tolyl-5,6-dihydro-2-naphthalen-2-ylethynyl)benzoic acid), of the 100% control (100 nM 4-[2-(5,5,8,8-tetramethyl-5,6,7,8-tetrahydro-2-naphthyl)propenyl]benzoic acid) and of the 0% control (500 nM 4-{(E)-3-[4-(4-tert-butylphenyl)-5,5,8,8-tetramethyl-5,6,7,8-tetrahydro-2-naphthyl]-3-oxopropenyl}benzoic acid) are added at a rate of 5 μl per well. The plates are then incubated for 18 hours at 37° C. and 7% CO2.
(§9) The culture medium is removed by turning over and 100 μl of a 1:1 PBS/luciferin mixture is added to each well. After 5 minutes, the plates are read using the luminescence reader.

RAR gamma = target: T2, RAR gamma (Homo sapiens, UniProt P13631); experiment: Transactivation test (Kd apparent), RAR gamma; assay type: cell-based; settings: HeLa cells stably transfected with ERE-βGlob-Luc-SV-Neo reporter and RAR γ ER-DBD-puro; luciferase; Schild regression vs reference antagonist; read-out: RAR gamma Kd app
T2 sequence (P13631 185-454 limits assumed): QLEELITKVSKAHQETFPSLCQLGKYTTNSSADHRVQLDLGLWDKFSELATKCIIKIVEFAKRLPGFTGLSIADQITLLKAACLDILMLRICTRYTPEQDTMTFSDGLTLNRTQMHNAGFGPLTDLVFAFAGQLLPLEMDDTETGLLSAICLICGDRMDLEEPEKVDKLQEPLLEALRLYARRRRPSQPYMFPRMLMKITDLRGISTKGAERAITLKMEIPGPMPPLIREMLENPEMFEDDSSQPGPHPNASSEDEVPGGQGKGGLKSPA
Procedure: as §1, §2, §3, §4, §5, §6, §7, §8, §9

RAR alpha = target: T3, RAR alpha (Homo sapiens, UniProt P10276); experiment: Transactivation test (Kd apparent), RAR alpha; assay type: cell-based; settings: HeLa cells stably transfected with ERE-βGlob-Luc-SV-Neo reporter and RAR α ER-DBD-puro; luciferase; Schild regression vs reference antagonist; read-out: RAR alpha KD app
T3 sequence (P10276 183-417 limits assumed): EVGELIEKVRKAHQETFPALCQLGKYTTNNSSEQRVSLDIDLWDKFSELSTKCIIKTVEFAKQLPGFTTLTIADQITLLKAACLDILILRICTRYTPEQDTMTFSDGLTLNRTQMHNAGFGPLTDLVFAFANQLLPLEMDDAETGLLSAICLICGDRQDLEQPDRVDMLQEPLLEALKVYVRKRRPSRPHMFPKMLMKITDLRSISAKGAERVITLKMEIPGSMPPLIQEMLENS
Procedure: as §1, §2, §3, §4, §5, §6, §7, §8, §9

Kd (RAR beta) [nM] | Kd (RAR gamma) [nM] | melting point [°C] | Compound | Kd (RAR alpha) [nM]
4000 | 120 |  | CC(C)NCCOc1ccc(-c2ccc(C(=O)O)cc2)cc1-c1ccc2c(c1)C(C)(C)CCC2(C)C [Compound 12, 4′-(2-Isopropylaminoethoxy)-3′-(5,5,8,8-tetramethyl-5,6,7,8-tetrahydronaphth-2-yl)biphenyl-4-carboxylic acid] | 
 |  | 141 | CCOC(=O)c1ccc(-c2ccc(OCCCNC3CC3)c(-c3ccc4c(c3)C(C)(C)CCC4(C)C)c2)cc1 [Compound 50, Ethyl 4′-(3-cyclopropylaminopropoxy)-3′-(5,5,8,8-tetramethyl-5,6,7,8-tetrahydronaphth-2-yl)biphenyl-4-carboxylate] | 
 |  | 175 | CCCCNCCCOc1ccc(-c2ccc(C(=O)OCC)cc2)cc1-c1ccc2c(c1)C(C)(C)CCC2(C)C [Compound 52, Ethyl 4′-(3-butylaminopropoxy)-3′-(5,5,8,8-tetramethyl-5,6,7,8-tetrahydronaphth-2-yl)biphenyl-4-carboxylate] | 
 |  | 120 | CCCNCCCOc1ccc(-c2ccc(C(=O)OCC)cc2)cc1-c1ccc2c(c1)C(C)(C)CCC2(C)C [Compound 56, Ethyl 4′-(3-propylaminopropoxy)-3′-(5,5,8,8-tetramethyl-5,6,7,8-tetrahydronaphth-2-yl)biphenyl-4-carboxylate] | 
 |  | 141 | CCOC(=O)c1ccc(-c2ccc(OCCCNC)c(-c3ccc4c(c3)C(C)(C)CCC4(C)C)c2)cc1 [Compound 60, Ethyl 4′-(3-methylaminopropoxy)-3′-(5,5,8,8-tetramethyl-5,6,7,8-tetrahydronaphth-2-yl)biphenyl-4-carboxylate] | 
 | 30 |  | CNCCCOc1ccc(-c2ccc(C(=O)O)cc2)cc1-c1ccc2c(c1)C(C)(C)CCC2(C)C [Compound 61, 4′-(3-Methylaminopropoxy)-3′-(5,5,8,8-tetramethyl-5,6,7,8-tetrahydronaphth-2-yl)biphenyl-4-carboxylic acid] | 
 |  | 148 | CCNCCCOc1ccc(-c2ccc(C(=O)OCC)cc2)cc1-c1ccc2c(c1)C(C)(C)CCC2(C)C [Compound 62, Ethyl 4′-(3-ethylaminopropoxy)-3′-(5,5,8,8-tetramethyl-5,6,7,8-tetrahydronaphth-2-yl)biphenyl-4-carboxylate] | 
 | 250 |  | CCNCCCOc1ccc(-c2ccc(C(=O)O)cc2)cc1-c1ccc2c(c1)C(C)(C)CCC2(C)C [Compound 63, 4′-(3-Ethylaminopropoxy)-3′-(5,5,8,8-tetramethyl-5,6,7,8-tetrahydronaphth-2-yl)biphenyl-4-carboxylic acid] | 
60 | 4 |  | CC1(C)CCC(C)(C)c2cc(-c3cc(-c4ccc(C(=O)O)cc4)ccc3OCCNC3CC3)ccc21 [Compound 67, 4′-(2-Cyclopropylaminoethoxy)-3′-(5,5,8,8-tetramethyl-5,6,7,8-tetrahydronaphth-2-yl)biphenyl-4-carboxylic acid] | 1000
500 | 250 |  | CC1(C)CCC(C)(C)c2cc(-c3cc(-c4ccc(C(=O)O)cc4)ccc3OCCCCCNC3CC3)ccc21 [Compound 69, 4′-(5-Cyclopropylaminopentyloxy)-3′-(5,5,8,8-tetramethyl-5,6,7,8-tetrahydronaphth-2-yl)biphenyl-4-carboxylic acid] | 2000
2000 | 120 |  | CC1(C)CCC(C)(C)c2cc(-c3cc(-c4ccc(C(=O)O)cc4)ccc3OCCCCCN)ccc21 [Compound 73, 4′-(5-Aminopentyloxy)-3′-(5,5,8,8-tetramethyl-5,6,7,8-tetrahydronaphth-2-yl)biphenyl-4-carboxylic acid] | 2000

Compound | Kd (RAR beta) [nM] | Kd (RAR gamma) [nM] | melting point [°C] | Kd (RAR alpha) [nM]
CC(C)NCCCCOc1ccc(-c2ccc(C(=O)O)cc2)cc1-c1ccc2c(c1)C(C)(C)CCC2(C)C [Compound 1, 4′-(4-Isopropylaminobutoxy)-3′-(5,5,8,8-tetramethyl-5,6,7,8-tetrahydronaphth-2-yl)biphenyl-4-carboxylic acid] | 500 | 15 |  | 1000
CC1(C)CCC(C)(C)c2cc(-c3cc(-c4ccc(C(=O)O)cc4)ccc3OCCCCNC3CC3)ccc21 [Compound 59, 4′-(4-Cyclopropylaminobutoxy)-3′-(5,5,8,8-tetramethyl-5,6,7,8-tetrahydronaphth-2-yl)biphenyl-4-carboxylic acid] | 4000 | 1000 |  | 8000
CC1(C)CCC(C)(C)c2cc(-c3cc(-c4ccc(C(=O)O)cc4)ccc3OCCCN)ccc21 [Compound 65, 4′-(3-Aminopropoxy)-3′-(5,5,8,8-tetramethyl-5,6,7,8-tetrahydronaphth-2-yl)biphenyl-4-carboxylic acid] |  | 8 |  | 
CC1(C)CCC(C)(C)c2cc(-c3cc(-c4ccc(C(=O)O)cc4)ccc3OCCCCN)ccc21 [Compound 75, 4′-(4-Aminobutoxy)-3′-(5,5,8,8-tetramethyl-5,6,7,8-tetrahydronaphth-2-yl)biphenyl-4-carboxylic acid] | 2000 | 60 |  | 8000
